Measured values as given in US20230364079A1, “COMPOUND AS BRAIN-PERMEABLE BTK OR HER2 INHIBITOR, PREPARATION METHOD THEREFOR, AND USE THEREOF” (CHENGDU HYPERWAY PHARMACEUTICALS CO., LTD., priority 2020, published 2023).

What was measured:
[1] = Pharmacokinetic test, oral, SD rats; type: in vivo; conditions: oral 10 mg/kg, plasma; for AUC(0-inf) / Cmax / half-life: rat; for Cmax: read-out: Cmax; for half-life: read-out: T½ (converted)
Experimental: Each test compound was administered orally (10 mg/kg, 3 rats in each group) to SD rats for pharmacokinetic study. […] Animals were fasted overnight before oral administration, and fed again after 4 h of administration. […] At each collection time point, 3 whole blood samples were collected at a the collection volume of about 0.2-0.3 mL. […] The collected plasma was stored at -20° C. before analysis. 20 µL of plasma sample was added into a 1.6 mL 96-well deep-well plate, added with 200 µL of working internal standard solution (the same volume of vehicle was added to the blank instead of internal standard), vortexed for 1 min, and centrifuged at 5800 rpm for 10 min. 100 µL of the supernatant was added to a 96-well injection plate for LC-MS/MS analysis.

[2] = molecular target: BTK wild-type kinase (Homo sapiens (Human), UniProt Q06187); experiment: BTK kinase activity inhibition test in vitro (Caliper EZ Reader); type: biochemical
Sequence of BTK wild-type kinase (Q06187 whole entry): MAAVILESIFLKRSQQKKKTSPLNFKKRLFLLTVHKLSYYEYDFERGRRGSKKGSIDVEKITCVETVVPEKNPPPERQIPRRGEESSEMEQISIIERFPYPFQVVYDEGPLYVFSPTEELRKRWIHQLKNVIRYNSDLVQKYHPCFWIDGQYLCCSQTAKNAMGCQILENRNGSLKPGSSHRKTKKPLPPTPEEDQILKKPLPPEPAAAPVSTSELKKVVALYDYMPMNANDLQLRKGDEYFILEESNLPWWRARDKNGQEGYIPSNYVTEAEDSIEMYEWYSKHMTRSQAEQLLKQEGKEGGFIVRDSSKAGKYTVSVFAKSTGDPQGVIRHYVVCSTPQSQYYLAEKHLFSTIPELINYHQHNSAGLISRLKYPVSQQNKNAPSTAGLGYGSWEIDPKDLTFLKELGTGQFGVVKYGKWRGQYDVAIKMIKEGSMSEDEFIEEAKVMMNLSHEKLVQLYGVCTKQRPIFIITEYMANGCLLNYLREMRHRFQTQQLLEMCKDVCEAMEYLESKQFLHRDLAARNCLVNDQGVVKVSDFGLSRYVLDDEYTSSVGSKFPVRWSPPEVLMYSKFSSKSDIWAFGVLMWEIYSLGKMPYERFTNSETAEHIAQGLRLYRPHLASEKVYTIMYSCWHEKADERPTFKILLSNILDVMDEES
Experimental: In the tests on the activity of inhibiting BTK and HER2 kinase in vitro in the examples of the present disclosure, powder of the compound was dissolved in 100% DMSO to prepare a 10 mM stock solution and stored at-20° C. in the dark. […] In addition, the compounds were subjected to experiments such as liver microsome metabolic stability, rat PK, rat brain penetration rate, and drug efficacy model in the examples of the present disclosure.
Compound powders were dissolved in 100% DMSO to make 10 mM stock solutions, which were stored at -20° C. in the dark.
2: Kinase Reaction Process
(1) Preparation of 1 × Kinase buffer.
(5) After centrifugation at 1000 rpm for 30 seconds, the reaction plate was shaken to mix well and incubated at room temperature for 10 min.
(6) A 5/3-fold final concentration of a mixed solution of ATP and Kinase substrate 2 was prepared with 1 × Kinase buffer.
(7) 15 µL of the mixed solution of ATP and substrate with 5/3-fold final concentration was added to start the reaction.
(8) The 384-well plate was centrifuged at 1000 rpm for 30 seconds, shaken to mix well, and incubated at room temperature for 10 min.
(9) 30 µL of a stop solution was added to stop the kinase reaction, and after centrifugation at 1000 rpm for 30 seconds, the plate was shaken to mix well;
(10) The conversion rate was read with Caliper EZ Reader.
where Conversion%_sample indicates the conversion rate reading of the sample; Conversion%_min is the average reading of the negative control wells, representing the conversion rate reading of the wells without enzyme activity; Conversion%_max is the average reading of the ratio of the positive control wells, representing the conversion rate reading of the wells without compound inhibition.
Dose-Response Curve Fitting
With the log value of the concentration as the X-axis, and the percentage inhibition rate as the Y-axis, the dose-effect curve was fitted using the log(inhibitor) vs. response-Variable slope of the analysis software GraphPad Prism 5, so as to determine the IC50 value of each compound on the enzyme activity.
The calculation formula was: […]

For `COc1ccccc1C(=O)NCc1ccc(-c2nn(C3CCC(CO)OC3)c3ncnc(N)c23)cc1` (single isomer, unassigned) [Compound 60-B], the “Cl” value [1] was 188.82 mL/min/kg, the AUC(0-inf) [1] was 889 ng·h/mL and the Cmax [1] was 946 ng/mL. For the same compound, the half-life [1] was 2.89 h and the IC50 [2] was 20 to 100 nM.
For `COc1cccc(Oc2ccc(-c3nc(C45CCC(CO)(CC4)OC5)n4ccnc(N)c34)cc2)c1C#N` [Compound 116], the “Cl” value [1] was 84.73 mL/min/kg, the AUC(0-inf) [1] was 2010 ng·h/mL and the Cmax [1] was 858 ng/mL. The half-life [1] was 1.35 h and the IC50 [2] was under 5 nM.
For `COc1cccc(Oc2ccc(-c3nc(C4CCC(CO)OC4)n4ccnc(N)c34)cc2)c1C(F)(F)F` (stereo not shown) [Compound 119], the “Cl” value [1] was 75.92 mL/min/kg, the AUC(0-inf) [1] was 2250 ng·h/mL and the Cmax [1] was 663 ng/mL. It also gave a half-life [1] of 0.64 h and an IC50 [2] of under 5 nM.
Compound `COc1cccc(C(F)(F)c2ccc(-c3nc(C45CCC(CO)(CC4)OC5)n4ccnc(N)c34)cc2)c1F` [Compound 129] has an IC50 [2] of 5 to 20 nM.
`Nc1nccn2c(C34CCC(CO)(CC3)OC4)nc(-c3ccc(C(F)(F)c4cccc(F)c4F)cc3)c12` [Compound 130] showed an IC50 [2] of 5 to 20 nM.
`CC(C)(c1ccccc1)c1ccc(-c2nc(C3CCC(CO)OC3)n3ccnc(N)c23)cc1` (stereo not shown) [Compound 131] gave an IC50 [2] of over 1000 nM.
`COc1cccc(C(F)(F)c2ccc(-c3nc(C45CCC(CO)(CC4)OC5)n4ccnc(N)c34)cc2)c1` [Compound 132] showed an IC50 [2] of 20 to 100 nM.
With `Nc1nccn2c(C3CCC(CO)OC3)nc(-c3ccc(C(=O)Nc4ccccc4F)cc3)c12` (stereo not shown) [Compound 133] the IC50 [2] was 100 to 1000 nM.
For `COc1cccc(Oc2ccc(-c3nc(C4CCC(CO)OC4)n4c(C)cnc(N)c34)cc2)c1F` (stereo not shown) [Compound 134], the IC50 [2] was 5 to 20 nM.
Compound `N#Cc1ccnc(NC(=O)c2ccc(-c3nc(C45COC(CO)(C4)C5)n4ccnc(N)c34)cc2)c1` [Compound 135] has an IC50 [2] of 5 to 20 nM.
`Nc1nccn2c(C34COC(CO)(C3)C4)nc(-c3ccc(C(=O)Nc4cc(C(F)(F)F)ccn4)cc3)c12` [Compound 136] showed an IC50 [2] of 5 to 20 nM.
With `COc1cccc(Oc2ccc(-c3nc(C45COC(CO)(C4)C5)n4ccnc(N)c34)cc2)c1C#N` [Compound 137] the IC50 [2] was 5 to 20 nM.
Compound `Nc1nccn2c(C34COC(CO)(C3)C4)nc(-c3ccc(C(F)(F)c4ccccc4)cc3)c12` [Compound 138] has an IC50 [2] of 20 to 100 nM.
Compound `Nc1nccn2c(C34CCC(CO)(CC3)OC4)nc(-c3ccc(C(F)(F)c4ccc(F)c(Cl)c4)cc3)c12` [Compound 140] has an IC50 [2] of 100 to 1000 nM.
For `Nc1nccn2c(C34CCC(CO)(CC3)OC4)nc(-c3ccc(C(F)(F)c4ccc(F)cc4)cc3)c12` [Compound 141], the IC50 [2] was 100 to 1000 nM.
For `Nc1nccn2c(C34CCC(CO)(CC3)OC4)nc(-c3ccc(C(F)(F)c4cccc(F)c4)cc3)c12` [Compound 142], the IC50 [2] was 100 to 1000 nM.
Work on `Nc1nccn2c(C34CCC(CO)(CC3)OC4)nc(-c3ccc(C(F)(F)c4cccc(C5CC5)c4)cc3)c12` [Compound 143] yielded an IC50 [2] of 20 to 100 nM.
Compound `C=CC(=O)N1CCC[C@@H](n2nc(-c3ccc(Oc4ccccc4)cc3)c3c(N)ncnc32)C1` [Ibrutinib, reference compound] has an AUC(0-inf) [1] of 362 ng·h/mL and a Cmax [1] of 222 ng/mL.
